# From patent publication US10875875B2, “Propionic acid derivatives and methods of use thereof” (Aviara Pharmaceuticals, Inc., priority 2017, dated 2020)
# Biological target: α4β1 (Homo sapiens, UniProt P05556+P13612)
# Assay: α4β1 integrin inhibition, IC50
# Format: binding
# Details: read-out: α4β1 IC50
# Sequence of α4β1 (P13612 34-1032): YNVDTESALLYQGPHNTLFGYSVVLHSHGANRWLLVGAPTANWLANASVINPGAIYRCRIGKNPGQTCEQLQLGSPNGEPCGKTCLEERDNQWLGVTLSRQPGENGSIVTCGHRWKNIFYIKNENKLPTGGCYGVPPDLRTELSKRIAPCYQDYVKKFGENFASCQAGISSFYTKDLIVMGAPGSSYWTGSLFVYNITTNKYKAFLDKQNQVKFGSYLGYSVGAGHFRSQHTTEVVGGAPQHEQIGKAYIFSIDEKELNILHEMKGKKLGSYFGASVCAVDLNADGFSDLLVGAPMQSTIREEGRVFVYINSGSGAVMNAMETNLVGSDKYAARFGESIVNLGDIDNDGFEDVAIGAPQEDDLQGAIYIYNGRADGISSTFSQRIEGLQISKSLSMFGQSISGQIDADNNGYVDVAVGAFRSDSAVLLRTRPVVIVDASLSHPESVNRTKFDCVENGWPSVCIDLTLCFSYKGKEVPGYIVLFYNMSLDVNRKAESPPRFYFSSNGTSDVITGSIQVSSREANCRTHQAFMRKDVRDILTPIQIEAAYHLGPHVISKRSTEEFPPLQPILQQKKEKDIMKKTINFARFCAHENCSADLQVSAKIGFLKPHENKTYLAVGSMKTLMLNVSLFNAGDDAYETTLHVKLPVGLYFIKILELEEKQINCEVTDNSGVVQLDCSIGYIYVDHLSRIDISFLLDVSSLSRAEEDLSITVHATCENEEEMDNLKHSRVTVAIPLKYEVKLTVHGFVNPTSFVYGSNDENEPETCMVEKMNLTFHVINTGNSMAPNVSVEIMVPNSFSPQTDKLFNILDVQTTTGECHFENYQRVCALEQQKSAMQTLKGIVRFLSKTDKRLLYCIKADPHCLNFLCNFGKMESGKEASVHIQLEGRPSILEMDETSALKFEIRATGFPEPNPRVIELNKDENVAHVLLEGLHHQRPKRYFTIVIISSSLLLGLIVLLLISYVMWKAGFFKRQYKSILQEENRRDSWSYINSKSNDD
# Sequence of α4β1 (P05556 21-798): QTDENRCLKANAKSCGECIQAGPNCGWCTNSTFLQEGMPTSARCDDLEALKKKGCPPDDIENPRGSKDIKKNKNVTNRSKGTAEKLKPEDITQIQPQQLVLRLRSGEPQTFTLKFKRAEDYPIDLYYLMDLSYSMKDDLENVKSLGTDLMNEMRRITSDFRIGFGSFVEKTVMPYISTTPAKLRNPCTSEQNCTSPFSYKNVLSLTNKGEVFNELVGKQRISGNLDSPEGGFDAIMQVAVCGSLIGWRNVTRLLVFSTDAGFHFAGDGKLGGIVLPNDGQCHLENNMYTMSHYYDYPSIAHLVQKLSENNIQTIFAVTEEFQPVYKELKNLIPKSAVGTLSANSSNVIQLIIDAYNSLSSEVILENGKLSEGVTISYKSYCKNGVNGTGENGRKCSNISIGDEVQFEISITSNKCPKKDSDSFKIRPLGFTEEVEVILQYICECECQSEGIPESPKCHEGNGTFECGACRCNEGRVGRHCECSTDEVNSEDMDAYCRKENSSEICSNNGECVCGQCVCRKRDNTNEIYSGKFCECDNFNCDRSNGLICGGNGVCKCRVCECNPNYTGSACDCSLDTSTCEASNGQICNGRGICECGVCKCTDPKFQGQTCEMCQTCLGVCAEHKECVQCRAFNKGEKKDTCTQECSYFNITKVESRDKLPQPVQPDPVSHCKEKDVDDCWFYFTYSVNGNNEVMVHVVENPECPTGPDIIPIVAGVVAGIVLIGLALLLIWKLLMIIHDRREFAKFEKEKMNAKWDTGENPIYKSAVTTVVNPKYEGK
row,IC50,Structure (SMILES)
1,> 200 nM,"CCn1cc(C)c(O)c(NC(=O)NC(CC(=O)O)c2cccc(-n3cccc(-c4ccccc4)c3=O)c2)c1=O (stereo not shown) [1-439, sodium 3-(3-(1-ethyl-5-methyl-4-oxido-2-oxo-1,2-dihydropyridin-3-yl)ureido)-3-(3-(2-oxo-3-phenylpyridin-1(2H)-yl)phenyl)propanoate]"
2,< 20 nM,"Cc1cn(C)c(=O)c(NC(=O)N[C@@H](CC(=O)O)c2cccc(-c3c(F)cccc3F)c2)c1O [1-464, sodium (S)-3-(2′,6′-difluorobiphenyl-3-yl)-3-(3-(1,5-dimethyl-4-oxido-2-oxo-1,2-di hydropyridin-3-yl)ureido)propanoate]"
3,< 20 nM,"Cc1cc(-c2ccc(F)cc2F)cc([C@H](CC(=O)O)NC(=O)Nc2c(O)ccn(C)c2=O)c1 [1-574, sodium (S)-3-(2′,4′-difluoro-5-methylbiphenyl-3-yl)-3-(3-(1-methyl-4-oxido-2-oxo-1,2-dihydropyridin-3-yl)ureido)propanoate]"
4,< 20 nM,"CCc1ccccc1-c1cccc([C@H](CC(=O)O)NC(=O)Nc2c(O)c(C)cn(C)c2=O)c1 [1-492, sodium (S)-3-(3-(1,5-dimethyl-4-oxido-2-oxo-1,2-dihydropyridin-3-yl)ureido)-3-(2′-ethylbiphenyl-3-yl)propanoate]"
5,< 200 nM,"Cc1cn(C)c(=O)c(NC(=O)N[C@@H](CC(=O)O)c2cccc(-c3cccnc3)c2)c1O [1-452, sodium (S)-3-(3-(1,5-dimethyl-4-oxido-2-oxo-1,2-dihydropyridin-3-yl)ureido)-3-(3-(pyridin-3-yl)phenyl)propanoate]"
6,< 200 nM,"Cc1cn(C)c(=O)c(NC(=O)NC(CC(=O)O)c2cccc(-c3cccc(Cl)c3Cl)c2)c1O (stereo not shown) [1-485, sodium 3-(2′,3′-dichlorobiphenyl-3-yl)-3-(3-(1,5-dimethyl-4-oxido-2-oxo-1,2-dihydropyridin-3-yl)ureido)propanoate]"
7,< 20 nM,"Cn1ncc(O)c(NC(=O)N[C@@H](CC(=O)O)c2cccc(-c3ccc(F)cc3F)c2)c1=O [1-549, sodium (S)-3-(2′,4′-difluorobiphenyl-3-yl)-3-(3-(2-methyl-5-oxido-3-oxo-2,3-dihydropyridazin-4-yl)ureido)propanoate]"
8,< 20 nM,"Cn1c(=O)c(NC(=O)N[C@@H](CC(=O)O)c2cccc(-c3ccc(F)cc3F)c2)c(O)c2sccc21 [1-515, sodium (S)-3-(2′,4′-difluorobiphenyl-3-yl)-3-(3-(4-methyl-7-oxido-5-oxo-4,5-dihydrothieno[3,2-b]pyridin-6-yl)ureido)propanoate]"
9,< 20 nM,"Cc1cc(O)c(NC(=O)N[C@@H](CC(=O)O)c2ccc(-c3ccc(F)cc3F)cc2)c(=O)n1C [1-622, sodium (S)-3-(2′,4′-difluorobiphenyl-4-yl)-3-(3-(1,6-dimethyl-4-oxido-2-oxo-1,2-dihydropyridin-3-yl)ureido)propanoate]"
10,< 20 nM,"COc1cccc(-c2cc([C@H](CC(=O)O)NC(=O)Nc3c(O)cc(C)n(C)c3=O)ccc2OC)c1 [1-551, sodium (S)-3-(3′,6-dimethoxybiphenyl-3-yl)-3-(3-(1,6-dimethyl-4-oxido-2-oxo-1,2-dihydropyridin-3-yl)ureido)propanoate]"
11,< 20 nM,"COc1cc(-c2cccc(OC(F)(F)F)c2)cc([C@H](CC(=O)O)NC(=O)Nc2c(O)cc(C)n(C)c2=O)c1 [1-568, sodium (S)-3-(3-(1,6-dimethyl-4-oxido-2-oxo-1,2-dihydropyridin-3-yl)ureido)-3-(5-methoxy-3′-(trifluoromethoxy)biphenyl-3-yl)propanoate]"
12,< 20 nM,"Cc1cc(O)c(NC(=O)N[C@@H](CC(=O)O)c2cccc(-c3ccccc3)c2F)c(=O)n1C [1-610, sodium (S)-3-(3-(1,6-dimethyl-4-oxido-2-oxo-1,2-dihydropyridin-3-yl)ureido)-3-(2-fluorobiphenyl-3-yl)propanoate]"
13,< 20 nM,"COc1ccc([C@H](CC(=O)O)NC(=O)Nc2c(O)ccn(C)c2=O)cc1-c1ccccc1 [1-529, sodium (S)-3-(6-methoxybiphenyl-3-yl)-3-(3-(1-methyl-4-oxido-2-oxo-1,2-dihydropyridin-3-yl)ureido)propanoate]"
